Assay results reported in US20250325467A1, “COMPOSITIONS FOR PREVENTING OR TREATING SKIN AGING” (ESTETRA SRL, priority 2021, published 2025).
Entries after “also recorded” stand apart in the source; their conditions may differ.

Tests used:
human monocytes = experiment: Immune cell polarization (qPCR of M1/M2 markers), human monocytes; assay type: cell-based; settings: activated human monocytes; qPCR markers NOS2, ARG1
Procedure: (§1) Immune cell polarization was evaluated in vitro using markers for M1/TH-1 (NOS2) and M2/TH-2 (ARG1) phenotype with human monocytes and mouse monocytes (BMDM bone marrow derived monocytes).
Human blood was collected under national ethical approval with full informed written patient consent. Freshly isolated human blood was collected in EDTA vacutainer tubes, diluted 1:1 in PBS and gently layered onto histopaque (Merck). Tubes were immediately centrifuged at 100×g for 30 minutes and the whitish buffy layer formed at the histopaque interface aspirated and washed (centrifuged 100×g, 10 minutes) twice with sterile PBS. Untouched classical (CD14++, CD16−) monocytes were isolated from the washed buffy layer cells using the Miltenyi Classical Monocyte Isolation Kit, LS columns and a MidiMACs separator (Miltenyi). Isolated cells were seeded into tissue culture plates and stimulated to differentiate using PMA.
(§2) An experiment was conducted to evaluate the anti-inflammatory effects of E4 or vehicle (negative control). qPCR methodology was used to assess the effects of E2 and E4 on immune cell polarization using well validated marker of pro-inflammatory (NOS2 for MI/TH-1 phenotype) and anti-inflammatory (ARG1 for ME/TH-2 phenotype) activity.

[1] = test system: mouse BMDM (bone marrow derived monocytes); experiment: Immune cell polarization (qPCR of M1/M2 markers), mouse BMDM; assay type: cell-based; settings: activated mouse BMDM; qPCR markers NOS2, ARG1
Procedure: as §1, §2

[2] = in humans; unlike other estrogens; cited from earlier work
[3] = test system: Normal Human Dermal Fibroblasts (NHDFs); experiment: Colonization of a standard acellular area (IBIDI chamber gap closure) by fibroblasts; assay type: cell-based; settings: vs ethanol control; for NHDF Migration (+MMC) (colonization of the acellular area): presence of MMC, 6 h and 24 h
Procedure: The study consists in an in vitro assay aiming to evaluate the properties of E4 and E2 at 4 concentrations each on keratinocytes and fibroblasts. In this assay, the measurement of the colonization of a standard acellular surface generated from a confluent monolayer of cells using a dedicated culture device (IBIDI chamber) is performed. The assay is performed in absence and in presence of a proliferation inhibitor to focus on cell proliferation and migration or on migration only, respectively.
Normal Human forskin-derived Dermal Fibroblats (NHDFs, ATCC) cells were grown in phenol-free Dulbecco's Modified Eagle Medium (DMEM, ThermoFisher Scientific) supplemented with 10% of Foetal Bovine Serum (FBS, ThermoFisher Scientific), L-glutamine and antibiotics. The cells were maintained in a humidified incubator at 37° C. with a 5% CO2 atmosphere.
Cells were plated in 2-well silicone inserts with a defined cell free gap (IBIDI chambers; IBIDI GmbH, 80209) that was previously inserted on 12-well culture plates. This culture device allows to create a standardized 500 μm±100 μm cell free gap for monitoring cell colonization. 24 h after seeding, when the culture reached high confluency, cells in the insert were treated, or not, with mitomycin C (MMC) at 10 μg/ml during 2 h. After these 2 hours, the insert was removed, and cells were treated with E2 or E4 in presence or not of MMC for additional 2 h. Then, if appropriate, the culture medium was removed and cells were treated with E2 or E4 for 22 h, in absence of MMC.
For the assay, keratinocytes were plated in Epilife medium without HKGS and all the treatments were performed in this medium. Fibroblasts were plated in DMEM medium containing only 2,5% of FBS and the treatments were performed in absence of FBS.
E2 and E4 were applied at 4 concentrations each (10^−7M, 10^−8M, 10^−9M, 10^−10M). In parallel, cells were treated with a positive control (HKGS 1% for human keratinocytes and PDGF-BB at 10 ng/ml for human fibroblasts).
To monitor cell colonization and to evaluate the gap closure rate, pictures of the gap were taken after different times: at time 0 h, corresponding to the beginning of the treatment with E2 or E4 and to the removal of the culture insert, at time 6 h and at time 24 h (corresponding to the end of the treatments with E2 or E4). Pictures were taken with a microscope Zeiss (Axiover 25-10× objective) and with a camera Invenio2EIII (DeltaPix—Lux-Optic). The colonized areas were quantified from the pictures by the use of the WimAsis platform—WimScratch software. For each insert, 3 pictures were taken at each time. As each condition was performed in triplicates, it means a total of 9 pictures per condition and per time point of acquisition

[4] = test system: mouse lymphoma cell line L5178Y TK^+/−; experiment: Generation of reactive oxygen species (ROS) in mouse lymphoma cells; assay type: cell-based; settings: test item 1 to 3000 μM; 3 h exposure; vs vehicle control; three experiments
Procedure: The objective of the study was to investigate the generation of reactive oxygen species (ROS) induced by the test item, estetrol (E4), in a mouse lymphoma cell line L5178Y TK^+/−.
L5178Y TK^+/− cells in logarithmic phase of growth were plated in black 96 well cell culture plates at 1×10^4 cells in 90 μL of cell culture media. Controls and test item in triplicate were applied to the cells as a 10× concentrate in 10 μL of a 10% ethanol solution in PBS (final concentration of ethanol on plate was 1%). Cells were incubated for 3 hours at 37° C., 5% CO2, and the generation of ROS was evaluated by fluorescence with a ROS reagent: the ROS reagent was freshly prepared by dissolving one ampoule of reagent (50 μg) in 70 μL DMSO and further diluting this with 2.1 mL of pre-warmed PBS. 10 μL of ROS reagent was added to each well and the plate were shaken for 30 seconds in the dark. The plates were incubated approximately at 37° C., 5% CO2 for 1 h 30 min and fluorescence was read on a plate scanner with excitation at 492 nm and emission at 520 nm.

[5] = female, Lister Hooded, rat, in vivo, 0.5 h
Procedure: Tissue distribution was determined in female rats (partially pigmented and non-pigmented) using [^14C]-estetrol.
A group of six female Lister Hooded rats each received a single oral dose of [^14C]-estetrol. At each selected time (see below) one animal was killed (by overdose of CO2) followed by immediate snap freezing in hexane/solid CO2. The carcasses were retained for examination of the tissue distribution of radioactivity using the technique of quantitative whole body autoradiography (QWBA).
Times for analysis were: (0.5, 8, and 24 hours, 7, 14 and 35 days)
Frozen carcasses were subjected to whole-body autoradiography.
Where concentrations are reported, radioactivity was assumed to be associated with [^14C]-estetrol or any metabolic products derived from [^14C]-estetrol. The specific activities of the dosed test compounds were used for the calculation of concentrations in all cases. Recoveries of radioactivity are reported as percentage of administered radioactivity (% dose). Radioactivity concentrations are also reported as pg equivalents/g.

## C[C@]12CC[C@@H]3c4ccc(O)cc4CC[C@H]3[C@@H]1[C@@H](O)[C@@H](O)[C@@H]2O [E4, 1,3,5 (10)-estratrien-3,15alpha,16alpha,17beta-tetrol]
Human monocytes
  immune cell polarization (monocyte subtype M1/M2): switch from monocyte subtype M1 (pro-inflammatory) to subtype M2 (healing)
[1]
  immune cell polarization (monocyte subtype M1/M2): switch from monocyte subtype M1 (pro-inflammatory) to subtype M2 (healing)
[2]
  impact on lipid and triglyceride level: very limited impact on lipid and triglyceride level
[3]; 10^−7M
  NHDF Migration (+MMC) (colonization of the acellular area): significantly increase the colonization of the acellular area; also recorded: significant activity
[3]; 10^−8M
  NHDF Migration (+MMC) (colonization of the acellular area): significantly increase the colonization of the acellular area; also recorded: significant activity
[3]; absence of MMC, all four concentrations (10^−7M to 10^−10M)
  colonization of the cell-free area by NHDF, overall: not able to significantly increase the colonization of the cell-free area
[4]
  levels of ROS: dose-dependent decrease in the levels of ROS
[5]
  radioactivity based on total dose/tissue, non-pigmented skin: 1.1%
  radioactivity based on total dose/tissue, pigmented skin: 1.7%
